# Experimental data taken from PubChem BioAssay (NCI).
#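 Growth conditions: 96-well plates. Treatment: test compound, 48 hours, 5 concentrations. Analysis: linear interpolation between bracketing concentrations; unreached endpoints set to highest concentration. GI50 is the concentration that inhibits growth by half. At the TGI there is no net growth.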
# Tests used:
# Experiment in all cases: growth of human tumour cells (NCI), 48 h
# HL-60(TB) leukemia = system: HL-60(TB) leukemia
# HOP-92 NSCLC = system: HOP-92 NSCLC
# OVCAR-5 ovarian = system: OVCAR-5 ovarian
# NCI-H522 lung = system: NCI-H522 lung
# SK-MEL-28 melanoma = system: SK-MEL-28 melanoma
# NCI-H226 lung = system: NCI-H226 lung
# RXF 393 renal = system: RXF 393 renal
# SN12C renal = system: SN12C renal
# HCT-15 colon = system: HCT-15 colon
# SW-620 colon = system: SW-620 colon
Structure (SMILES),GI50 (HL-60(TB) leukemia) [µM],TGI (HL-60(TB) leukemia) [µM],GI50 (HOP-92 NSCLC) [µM],TGI (HOP-92 NSCLC) [µM],GI50 (OVCAR-5 ovarian) [µM],TGI (OVCAR-5 ovarian) [µM],GI50 (NCI-H522 lung) [µM],TGI (NCI-H522 lung) [µM],GI50 (SK-MEL-28 melanoma) [µM],TGI (SK-MEL-28 melanoma) [µM],GI50 (NCI-H226 lung) [µM],TGI (NCI-H226 lung) [µM],GI50 (RXF 393 renal) [µM],TGI (RXF 393 renal) [µM],GI50 (SN12C renal) [µM],TGI (SN12C renal) [µM],GI50 (HCT-15 colon) [µM],TGI (HCT-15 colon) [µM],GI50 (SW-620 colon) [µM],TGI (SW-620 colon) [µM]
N#CSc1ncnc2nc[nH]c12,5.5,> 100,6.91,> 94,17.2,> 100,3.32,25.6,44.4,> 100,> 100,> 100,21.6,> 100,51.7,> 100,8.82,> 100,7.85,> 100
COc1ccc(C(=O)/C=C/c2ccc(Cl)cc2)cc1S(=O)(=O)Nc1c(N)nc(SC)[nH]c1=O,3.2,16.1,2.59,7.99,2.83,9.53,1.88,4.08,2.1,4.97,2.34,8.36,1.6,3.26,3.45,13.8,3.24,14.9,2.24,5.5
O=C(O)CS(=O)(=O)C(c1ccccc1)c1ccccc1,,> 100,,> 100,,> 100,,> 100,,> 100,,> 100,,> 100,,> 100,,> 100,,> 100
CC12CCC(=O)C=C1CCC1C2CCC2(C)C(C(=O)Cn3cnc4c(=S)nc[nH]c43)CCC12 (centres undefined),,> 100,,37.7,,> 100,,> 100,,> 100,,> 100,,44,,> 100,,> 100,,> 100
COc1cccc(OC(=O)c2ccccc2Nc2ccnc(C(F)(F)F)c2)c1,2.15,15.2,5.77,60.4,3.53,35.6,7.61,> 100,12.7,> 100,8.09,77.3,20.7,59.6,5.33,41.2,2.81,12,4.37,> 100
CCOC(=O)Cc1c[nH]c(=S)[nH]c1=O,> 100,> 100,> 100,> 100,> 100,> 100,> 100,> 100,> 100,> 100,> 100,> 100,> 100,> 100,> 100,> 100,> 100,> 100,> 100,> 100
OCC1OC(n2ccc3c2ncn2ncnc32)C(O)C1O (centres undefined),0.854,5.5,0.253,9.22,1.19,> 100,90.4,> 100,> 72.9,> 100,1.59,> 100,0.989,13.8,0.6,> 100,0.47,> 100,0.528,> 100
Cn1c(=O)c2[nH]c(/N=N/N3CCN(CCO)CC3)nc2n(C)c1=O,,> 100,,> 100,,> 100,,> 100,,> 100,,> 100,,> 100,,> 100,,> 100,,> 100
O=c1cc(CNc2cc(F)cc(F)c2)c2ccc(I)cc2[nH]1,0.337,> 51.1,1.42,> 100,16.2,> 100,0.305,> 100,> 67.3,> 100,,> 100,0.374,38,0.798,> 100,0.387,> 100,0.384,> 100
CC1Oc2cc3c(-c4c(O)cc(O)c5c(O)c6c(cc45)OC(C)C(C)C6=O)c(O)cc(O)c3c(O)c2C(=O)C1C (centres undefined),,0.65,,0.854,,6.32,,1.63,,1.96,,0.89,,0.207,,1.12,,1.15,,1.52
NC(=O)[C@H]1CCN(c2ncnc(N)c2F)C[C@@H]1N1CCC[C@@H](Nc2cc(Cl)cc(C(F)(F)F)c2)C1=O,20.5,42.5,11.2,40.7,13.5,59.3,7.11,28.4,18.5,44.3,18.4,70,6.01,25.5,10.9,> 100,15.1,48.2,25.6,> 100
c1ccc2[nH]c(-c3ccc(N4CCN(c5ccc(-c6nc7ccccc7[nH]6)cc5)CC4)cc3)nc2c1,> 100,> 100,> 100,> 100,52,> 100,> 100,> 100,43,> 100,24.2,> 100,> 100,> 100,> 100,> 100,> 100,> 100,58,> 100
Nc1nc(/C=C\c2ccc([N+](=O)[O-])o2)nc(N2CCN(c3ccccc3)CC2)n1,7.73,61.8,6.86,44.3,31.5,62.5,3.02,9.94,14.1,40.5,17.5,52.8,2.94,41.5,11.1,43.9,2.77,11.9,4.6,> 100
O=C(NCCCCCCNC(=O)c1cccc2ccccc12)c1cccc2ccccc12,,> 100,,25.8,,> 100,,> 100,,> 100,,53,,23.8,,> 100,,> 100,,> 100
CCN(CC)CCOc1ccc(C(=C(C)c2ccc(Cl)cc2)c2ccc(OCCN(CC)CC)cc2)cc1,0.639,1.34,0.536,2.19,0.664,1.57,0.591,1.25,0.602,1.1,2.54,7.32,0.519,1.01,1.19,2.88,0.556,1.08,0.556,1.1
CC1(C)CCC2(C(=O)OC3OC(CO)C(O)C(O)C3O)CC[C@]3(C)C(=CCC4C5(C)CC[C@H](OC6OC(C(=O)O)C(O)C(O)C6O)C(C)(C)C5CCC43C)C2C1 (some centres undefined),1.22,3.45,1.04,2.98,3.07,9.41,1.72,9.71,2.6,12.2,1.49,6.31,1.65,> 50,1.39,3.55,6.73,13.3,1.93,8.87
Fc1ccc2[nH]cc(Cc3c[nH]c4ccc(F)cc34)c2c1,37.4,> 100,15.4,34.1,17.5,38,14.3,36.3,25.3,76.7,31.3,92.3,18.2,42.8,21.6,51.4,17.5,55.6,23.7,58.8
CCC[CH2][Sn]([CH2]CCC)([O]C(C)=O)[O]C(C)=O,0.524,1.45,1.92,4.13,1.23,2.71,0.147,0.324,1,2.27,1.53,3.01,0.195,0.654,1.24,2.54,1.43,3.14,0.694,2.65
COC(=O)CCC(=O)N1Cc2cc(C)ccc2N(C(=O)CCC(=O)OC)Cc2cc(C)ccc21,,> 100,,> 100,,> 100,,> 100,,> 100,,> 100,,> 100,,> 100,,> 100,,> 100
N#Cc1ncc(/N=C/c2ccc(N(CCCl)CCCl)cc2)s1,7.44,> 100,24.7,93.3,17.5,> 100,29.8,> 100,79.7,> 100,0.897,7.71,12.4,28.9,8.28,> 100,21.8,> 100,9.69,> 100
O=C(CCN1CCCC1)Nc1ccc2c(NCc3ccc(F)cc3)c3ccccc3nc2c1,0.55,2.34,0.366,2.07,0.48,2.01,0.394,1.75,1.47,2.88,0.57,2.63,0.401,1.61,0.39,1.66,1.53,4.07,0.353,1.53
CN(C)CCNC(=O)c1cccn2c(=O)c3cc4ccccc4cc3nc12,0.36,9.73,0.538,> 100,0.217,13.7,0.182,0.856,0.424,2.9,0.145,2.99,0.0981,0.286,0.144,> 100,0.2,> 100,0.0515,2.08
O=C1c2ccccc2C(=O)N1CC1(C(=O)O)NCCS1(=O)=O (centres undefined),,> 100,,> 100,,> 100,,> 100,,> 100,,> 100,,> 100,,> 100,,> 100,,> 100
COc1cc2nc(Cl)nc(Nc3cccc(C(=O)/C=C/c4ccccc4)c3)c2cc1OC,3.61,> 100,2.09,8.52,8.79,> 100,3.09,52.6,5.03,> 100,5.81,> 100,2.02,5.46,3.98,41.1,2.88,> 100,2.79,> 100
CSc1nnc(CCSc2ccnc3c(C(F)(F)F)cccc23)o1,55.1,> 100,18.1,> 100,> 100,> 100,> 100,> 100,> 100,> 100,> 100,> 100,65.3,> 100,> 100,> 100,> 100,> 100,> 100,> 100
